# From ChEMBL document CHEMBL1143544, “The role of QSAR in dopamine interactions” (Bioorg Med Chem Lett, 2005)
# What was measured:
# [1] = target: Sodium-dependent dopamine transporter (Homo sapiens, UniProt Q01959); assay: Ability of compound to inhibit dopamine uptake of receptor was determined; details: read-out: Log 1/Ki (converted)
# [2] = Binding affinity towards dopamine receptor D4 was determined; parameters: species or system Homo sapiens
# [3] = Binding affinity towards dopamine receptor D2 was determined; parameters: species or system Homo sapiens
# [4] = Binding affinity towards dopamine receptor D3 was determined; parameters: species or system Homo sapiens
# [5] = Binding affinity of compound towards dopamine receptor D3 was determined; parameters: species or system Homo sapiens
# [6] = Binding affinity of compound towards dopamine receptor D2 was determined; parameters: species or system Homo sapiens
# [7] = Binding affinity to displace [3H]spiperone from dopamine receptor D2 was determined; parameters: species or system Homo sapiens
# [8] = target: D(2) dopamine receptor (Homo sapiens, UniProt P14416)
# Description: Binding affinity towards human dopamine receptor D2 was determined by using [3H]spiperone as radioligand
# [9] = target: T1, D(4) dopamine receptor (Homo sapiens, UniProt P21917); assay: biochemical
# T1 sequence (P21917 whole entry): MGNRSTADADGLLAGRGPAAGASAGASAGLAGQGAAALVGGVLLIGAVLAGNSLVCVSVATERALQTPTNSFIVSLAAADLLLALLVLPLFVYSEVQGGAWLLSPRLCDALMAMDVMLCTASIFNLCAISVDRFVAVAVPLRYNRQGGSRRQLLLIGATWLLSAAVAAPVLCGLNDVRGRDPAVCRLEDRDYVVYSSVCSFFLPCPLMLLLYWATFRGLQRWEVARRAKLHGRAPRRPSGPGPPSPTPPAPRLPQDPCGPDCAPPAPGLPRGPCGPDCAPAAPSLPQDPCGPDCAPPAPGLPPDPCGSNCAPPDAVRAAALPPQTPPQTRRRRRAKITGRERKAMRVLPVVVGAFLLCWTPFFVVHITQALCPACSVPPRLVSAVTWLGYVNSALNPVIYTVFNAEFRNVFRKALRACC
# Description: Binding affinity towards human dopamine receptor D4 expressed in CHO cells was determined by using [3H]thymidine as radioligand
# Sodium-dependent dopamine transporter, sequence (Q01959 whole entry): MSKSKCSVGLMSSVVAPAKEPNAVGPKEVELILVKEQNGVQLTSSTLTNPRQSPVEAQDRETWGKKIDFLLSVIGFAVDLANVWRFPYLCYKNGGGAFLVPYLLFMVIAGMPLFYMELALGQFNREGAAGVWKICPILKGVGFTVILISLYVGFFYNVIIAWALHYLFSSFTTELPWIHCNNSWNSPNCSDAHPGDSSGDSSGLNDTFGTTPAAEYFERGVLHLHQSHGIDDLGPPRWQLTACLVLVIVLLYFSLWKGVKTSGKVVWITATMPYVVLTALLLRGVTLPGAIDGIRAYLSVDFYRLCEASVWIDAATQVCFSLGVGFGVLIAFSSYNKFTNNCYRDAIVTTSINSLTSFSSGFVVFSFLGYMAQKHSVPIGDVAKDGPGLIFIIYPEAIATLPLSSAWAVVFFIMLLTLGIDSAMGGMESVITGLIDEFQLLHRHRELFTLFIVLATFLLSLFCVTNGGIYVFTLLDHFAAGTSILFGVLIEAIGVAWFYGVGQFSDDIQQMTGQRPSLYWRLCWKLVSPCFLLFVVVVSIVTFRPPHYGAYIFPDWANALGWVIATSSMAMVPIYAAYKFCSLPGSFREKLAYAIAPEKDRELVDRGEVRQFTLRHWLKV
# D(2) dopamine receptor, sequence (P14416 whole entry): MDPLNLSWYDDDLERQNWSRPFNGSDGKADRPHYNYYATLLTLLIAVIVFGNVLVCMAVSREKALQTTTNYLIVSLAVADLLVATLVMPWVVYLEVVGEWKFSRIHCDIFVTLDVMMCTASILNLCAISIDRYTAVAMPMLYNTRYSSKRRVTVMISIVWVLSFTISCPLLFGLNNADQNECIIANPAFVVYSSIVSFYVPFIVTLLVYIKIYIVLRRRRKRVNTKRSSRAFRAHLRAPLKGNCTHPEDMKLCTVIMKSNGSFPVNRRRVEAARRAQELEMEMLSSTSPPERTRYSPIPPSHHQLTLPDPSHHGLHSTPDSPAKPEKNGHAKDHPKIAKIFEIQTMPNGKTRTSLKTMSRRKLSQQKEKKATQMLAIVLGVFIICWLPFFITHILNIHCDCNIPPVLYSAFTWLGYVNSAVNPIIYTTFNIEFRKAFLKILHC
structure (smiles),measurement,setting,value
Fc1ccc(C(OC2CC3CCC(C2)N3CCCOc2ccccc2)c2ccc(F)cc2)cc1 (stereo not given),Ki,[1],229 nM
O=C(NCCN1C2CCC1CC(OC(c1ccc(F)cc1)c1ccc(F)cc1)C2)c1cccnc1 (stereo not given),Ki,[1],14.1 nM
O=C(NCCN1C2CCC1CC(OC(c1ccc(F)cc1)c1ccc(F)cc1)C2)c1ccccc1 (stereo not given),Ki,[1],6.46 nM
Fc1ccc(C(OC2CC3CCC(C2)N3CCOCCN2CCOCC2)c2ccc(F)cc2)cc1 (stereo not given),Ki,[1],661 nM
O=C(CCCN1CCC(c2ccc(Cl)cc2)CC1)c1ccc(F)cc1,Log 1/Ki,[2],7.59
same,Log 1/Ki,[3],7.81
same,Log 1/Ki,[4],7.34
O=C(CCCN1CCC(CO)(c2ccc(Cl)cc2)CC1)c1ccc(F)cc1,Log 1/Ki,[2],7.11
same,Log 1/Ki,[3],7.81
same,Log 1/Ki,[4],6.96
O=C(CCCN1CCC(CO)(c2ccc(Cl)cc2)C1)c1ccc(F)cc1 (stereo not given),Log 1/Ki,[2],7.62
same,Log 1/Ki,[3],7.36
same,Log 1/Ki,[4],6.78
CN1CCN(C2=Cn3c(/C=N/O)ccc3Sc3ccccc32)CC1,Log 1/Ki,[5],5.37
Cn1c(=O)c2c(nc3nc(NCCCN4CCN(c5cccc(Cl)c5)CC4)ccn32)n(C)c1=O,Log 1/Ki,[6],7.03
Cc1ccc(CC2(O)CCN(CCCC(=O)c3ccc(F)cc3)CC2)cc1,Log 1/Ki,[2],7.23
same,Log 1/Ki,[3],8.1
same,Log 1/Ki,[4],8.05
Cn1c(=O)c2c(nc3nc(NCCCN4CCN(c5ccccc5)CC4)ccn32)n(C)c1=O,Log 1/Ki,[6],6.37
CCCc1cc(OC)c(OC)c(C(=O)NCC2CCCN2CC)c1O (stereo not given),Log 1/Ki,[7],8.89
Cn1c2c(c(=O)n(C)c1=O)N1CC(Br)=C(NCCN3CCN(c4ccccc4)CC3)NC1N2 (stereo not given),Log 1/Ki,[6],5.9
COc1ccccc1N1CCN(CCCNc2nc3nc4c(c(=O)n(C)c(=O)n4C)n3cc2Br)CC1,Log 1/Ki,[6],6.49
COc1ccccc1N1CCN(CCNC2=CCN3c4c(n(C)c(=O)n(C)c4=O)NC3N2)CC1 (stereo not given),Log 1/Ki,[6],5.88
Cn1c2c(c(=O)n(C)c1=O)N1CC(Br)=C(NCCN3CCN(c4cccc(Cl)c4)CC3)NC1N2 (stereo not given),Log 1/Ki,[6],6.78
Cn1c(=O)c2c(nc3nc(NCCCN4CCN(c5ccccc5)CC4)c(Br)cn32)n(C)c1=O,Log 1/Ki,[6],6.38
CN(CCCC(=O)c1ccc(F)cc1)CCC(O)c1ccc(Cl)cc1 (stereo not given),Log 1/Ki,[2],6.72
same,Log 1/Ki,[3],7.58
same,Log 1/Ki,[4],6.79
CCN1CCCC1CNC(=O)c1cc(CCCF)cc(OC)c1OC (stereo not given),Log 1/Ki,[7],8.36
CCN1CCCC1CNC(=O)c1cc(CCF)cc(OC)c1OC (stereo not given),Log 1/Ki,[7],8.28
CCN1CCCC1CNC(=O)c1c(O)c(CCCF)cc(OC)c1OC (stereo not given),Log 1/Ki,[7],9.1
Cn1c(=O)c2c(nc3nc(NCCCN4CCN(c5cccc(Cl)c5)CC4)c(Br)cn32)n(C)c1=O,Log 1/Ki,[6],6.58
COc1ccccc1N1CCN(CCNC2=C(Br)CN3c4c(n(C)c(=O)n(C)c4=O)NC3N2)CC1 (stereo not given),Log 1/Ki,[6],6.65
CCCc1cc(OC)c(OC)c(C(=O)NCC2CCCN2CC)c1 (stereo not given),Log 1/Ki,[7],8.16
COc1ccccc1N1CCN(CCCCNC(=O)c2ccc(-c3ccc(C(C)=O)cc3)cc2)CC1,Log Ki,[4],-9.5
O=C(NCN1CCN(c2ccccc2Cl)CC1)c1cccc(Cl)c1,Ki,[8],363 nM
COc1ccccc1N1CCN(CNC(=O)c2cccc(C)c2)CC1,Ki,[9],12.9 nM
same,Ki,[8],2450 nM
O=C(NCN1CCN(c2ccccc2Cl)CC1)c1ccc(Cl)cc1,Ki,[9],8.32 nM
same,Ki,[8],66.1 nM
Cc1cccc(C(=O)NCN2CCN(c3ccccc3Cl)CC2)c1,Ki,[9],15.8 nM
same,Ki,[8],468 nM
O=C(NCN1CCN(c2ccccc2Cl)CC1)c1ccccc1,Ki,[9],107 nM
same,Ki,[8],178 nM
Cc1ccc(C(=O)NCN2CCN(c3ccccc3C#N)CC2)cc1,Ki,[9],1.2 nM
same,Ki,[8],380 nM
O=C(CCN1[C@@H]2CC[C@H]1C[C@@H](OC(c1ccc(F)cc1)c1ccc(F)cc1)C2)Nc1ccccc1,Ki,[1],5.01 nM
NCCN1[C@@H]2CC[C@H]1C[C@@H](OC(c1ccc(F)cc1)c1ccc(F)cc1)C2,Ki,[1],25.7 nM
CCN1CCCC1CNC(=O)c1cc(Br)cc(OC)c1OC (stereo not given),Log 1/Ki,[7],9.12
Fc1ccc(C(OC2CC3CCC(C2)N3CCNCc2ccccc2)c2ccc(F)cc2)cc1 (stereo not given),Ki,[1],8.13 nM
Fc1ccc(C(OC2CC3CCC(C2)N3CCOCc2ccccc2)c2ccc(F)cc2)cc1 (stereo not given),Ki,[1],22.4 nM
OCCOCCN1C2CCC1CC(OC(c1ccc(F)cc1)c1ccc(F)cc1)C2 (stereo not given),Ki,[1],49 nM
Fc1ccc(C(OC2CC3CCC(C2)N3CCOCc2cccs2)c2ccc(F)cc2)cc1 (stereo not given),Ki,[1],18.6 nM
O=C(CCCN1CCC(CCO)(c2ccc(Cl)cc2)C1)c1ccc(F)cc1 (stereo not given),Log 1/Ki,[2],6.71
same,Log 1/Ki,[3],7.64
same,Log 1/Ki,[4],7.49
Cn1c2c(c(=O)n(C)c1=O)N1CC=C(NCCN3CCN(c4cccc(Cl)c4)CC3)NC1N2 (stereo not given),Log 1/Ki,[6],6.74
CCN1CCCC1CNC(=O)c1c(O)c(CCF)cc(OC)c1OC (stereo not given),Log 1/Ki,[7],9.11
N#Cc1ccccc1N1CCN(CNC(=O)c2ccccc2)CC1,Ki,[9],24 nM
same,Ki,[8],3020 nM
COc1ccccc1N1CCN(CCCCNC(=O)c2ccc(-c3ccc(S(C)(=O)=O)cc3)cc2)CC1,Log Ki,[4],-9.5
COc1ccccc1N1CCN(CCCNc2ccn3c(n2)nc2c3c(=O)n(C)c(=O)n2C)CC1,Log 1/Ki,[6],5.93
COc1ccccc1N1CCN(CNC(=O)c2ccccc2)CC1,Ki,[9],30.9 nM
same,Ki,[8],2450 nM
COc1ccccc1N1CCN(CNC(=O)c2cccc(Cl)c2)CC1,Ki,[8],1450 nM
COc1ccccc1N1CCN(CNC(=O)c2ccc(Cl)cc2)CC1,Ki,[9],3.47 nM
same,Ki,[8],269 nM
N#Cc1ccccc1N1CCN(CNC(=O)c2cccc(Cl)c2)CC1,Ki,[9],5.25 nM
same,Ki,[8],2290 nM
N#Cc1ccccc1N1CCN(CNC(=O)c2ccc(Cl)cc2)CC1,Ki,[9],3.89 nM
same,Ki,[8],603 nM
COc1ccccc1N1CCN(CNC(=O)c2ccc(C)cc2)CC1,Ki,[9],3.39 nM
same,Ki,[8],174 nM
Cc1ccc(C(=O)NCN2CCN(c3ccccc3Cl)CC2)cc1,Ki,[9],219 nM
same,Ki,[8],49 nM
COc1ccc(OC)c(N2CCN(CCCCNC(=O)c3ccc(Br)cc3)CC2)c1,Log Ki,[4],-8.5
O=C(NCCCCN1CCN(c2ccccc2)CC1)c1ccc(Br)cc1,Log Ki,[4],-8.2
COc1ccccc1N1CCN(CCCCNC(=O)c2ccc(Br)cc2)CC1,Log Ki,[4],-9.3
COc1ccccc1N1CCN(CCCCNC(=O)c2ccc(-c3ccc(N)cc3)cc2)CC1,Log Ki,[4],-9.7
CCN1CCCC1CNC(=O)c1cccc(OC)c1OC (stereo not given),Log 1/Ki,[7],7.18
